Like-named read-outs stand apart in the source and are kept apart here.
Columns and labels:
HCT116 cells = assay: MTT cytotoxicity screening, human colon cancer cell line HCT116; format: cell-based
Text: Human colon cancer cell line HCT116 can be used for the preliminary cytotoxicity screening of the disclosed compounds as disclosed by Mosmann, T., “Rapid colorimetric assay for cellular growth and survival: application to proliferation and cytotoxicity assays.” J. Immunol. Methods, (1983) 65(1-2): p. 55-63 referred to herein further as the “MTT test” which is incorporated herein by reference in its entirety.
The disclosure of Mosmann recites the following. “MTT 93-(4,5-dimethylthirazol-2-yl)-2,5-diphenyl tetrazolium bromide; Sigman catalog no. M2128) was dissolved in PBS at 5 mg/ml and filtered to sterilize and remove a small amount of insoluble residue present in some batches of MTT. At the times indicated below, stock MTT solution (10 ml per 100 ml) was added to all wells of an assay, and plates were incubated at 37° C. for 4 h. Acid-siopropanol (100 ml of 0.04 N HCl in isopropanol) was added to all wells and mixed thoroughly to dissolve the dark blue crystals. After a few minutes at room temperature to ensure that all crystals were dissolved, the plates were read o a Dynatech MR580Microelisa reader, using a test wavelength of 570 nm, a reference wavelength of 630 nm, and a calibration setting of 1.99 (or 1.0 if the samples were strongly colored). Plates were normally read within 1 h of adding the isopropanol.
“Our final procedure was to add 0.01 ml MTT (5 mg/ml in phosphate-buffered saline) to 0.1 ml cells in growth medium. After 4 h at 37° C. for MTT cleavage, the formazan product was solublilized by the addition of 0.1 ml 0.04 N HCl in isopropanol. Optical density was measured on a Dynatech MR 580 plate reader, using a reference wavelength of 630 nm and a test wavelength of 570 nm.” 3-(4,5-Dimethylthiazol-2-yl)-2,5-diphenyltetrazolium bromide, a tetrazole, can pass through cellular membrane to enter into cells. This tetrazole may be reduced to the purple formazan in the mitochondria of living cells, which can diffuse out to form crystals. This crystal can be dissolved in the dimethyl sulfoxide to form a colored solution. The absorbance of this colored solution can be quantified by measuring at certain wavelength (490 nm) using a spectrophotometer. The quantity of the formazan crystal is proportional to the number of living cells.
As used herein, cells were cultured in McCoy's 5A medium supplemented with 10% heat-inactivated Fetal Bovine Serum (FBS) and 5% Penicillin/Streptomycin solution. McCoy's 5A, 1× (Iwakata & Grace modified) medium with L-Glutamine, DPBS, 1× w/o Ca and Mg, Penicillin/Streptomycin solution, Trypsin EDTA, 1× and PBS, 1× w/o Ca and Mg were purchased from Mediatech, Inc. (USA). FBS was purchased from Hyclone (USA).
The cytotoxicity of the compounds was estimated using the MTT assay. A 96-well plate was seeded with 100 μl medium containing HCT116 cells in suspension at a density of 2.5×10^4 cells/ml. After 24 hours of incubation, the cells were treated with the compounds, which were dissolved in DMSO (dimethyl sulfoxide) as stock solutions and diluted to final concentrations of 100 μM, 50 μM, 25 μM, 12.5 μM, 6.25 μM & 1 μM (for compounds tested in the micromolar concentrations) and 10 μM, 1 μM, 500 nM, 250 nM, 125 nM & 62.5 nM (for compounds tested in the nanomolar concentration range) using medium containing 0.1% DMSO. The final concentration of DMSO in the culture medium was maintained at 0.1%-0.001% (v/v). After 48 hrs incubation in the presence of test compounds, the spent medium was removed and the wells were washed twice with 100 μL of PBS solution. 100 μL of fresh medium and 10 μL of MTT (5 mg/ml in PBS) was added to the wells and incubated at 37° C. in dark for 4 hrs. The formazan product was dissolved by adding 100 μL of 100% DMSO after removing the medium from each well and was stabilized by adding 12.5 μL of Sorensen's glycine buffer to each well. […]

[1] = Homo sapiens, HCT-116, 48 hrs incubation, absorbance 490 nm, primary screening, read-out: IC50
[2] = Homo sapiens, HCT-116, further evaluated after secondary screening (Table VIII), read-out: IC50 value

| Compound | IC50 (HCT116 cells; [1]) [µM] | melting point [°C] | further results |
| --- | --- | --- | --- |
| COc1cc(OC)c(C2=CCN(C)CC2)c(O)c1C(=O)/C=C/c1ccccc1[N+](=O)[O-] [Compound A3, (E)-1-(2-hydroxy-4,6-dimethoxy-3-(1-methyl-1,2,3,6-tetrahydropyridine-4-yl)phenyl)-3-(2-nitrophenyl)-2-propylene-1-one] | 17.9 | 149 to 151 |  |
| COc1cc(OC)c(C(=O)/C=C/c2ccco2)c(O)c1CN1CCOCC1 [Compound E32, (E)-3-(furan-2-yl)-1-(2-hydroxy-4,6-dimethoxy-3-(morpholin-4-ylmethyl)phenyl)-2-propylene-1-one] | 45.7 | 147 to 148 |  |
| COc1ccc(-c2cc(=O)c3c(OC)cc(OC)c(C4=CCN(C)CC4)c3o2)cc1 [Compound F4, 5,7-dimethoxy-8-(1-methyl-1,2,3,6-tetrahydropyridin-4-yl)-2-(4-methoxyphenyl)-4H-chromen-4-one] | 17.3 | 179 to 181 |  |
| COc1cc(OC)c(C2=CCNCC2)c(O)c1C(=O)/C=C/c1ccccc1 [Compound B1, 1-(2-hydroxy-4,6-dimethoxy-3-(1,2,3,6-tetrahydropyridine-4-yl)phenyl)-3-phenyl-2-propylene-1-one] | 8.41 | 118 to 120 | IC50 (HCT116 cells; [2]): ~0.1 µM |
| COc1cc(OC)c(C(=O)/C=C/c2cccc(Cl)c2)c(O)c1CN1CCCCC1 [Compound C4] | 3.87 | 134 to 135 |  |
| COc1cc(OC)c(C(=O)/C=C/c2ccc(C)cc2)c(O)c1CN1CCCCC1 [Compound C1, (E)-1-(2-hydroxy-4,6-dimethoxy-3-(piperidin-1-ylmethyl)phenyl)-3-(4-methylphenyl)-2-propylene-1-one] | 5.57 |  |  |
| COc1cc(OC)c(C2=CCN(C)CC2)c(O)c1C(=O)/C=C/c1ccccc1 [Compound A1, (E)-1-(2-Hydroxy-4,6-dimethoxy-3-(1-methyl-1,2,3,6-tetrahydropyridine-4-yl)phenyl)-3-phenylprop-2-en-1-one] | 10.1 |  |  |
| COc1cc(OC)c(C(=O)/C=C/c2cc(OC)c(OC)c(OC)c2)c(O)c1CN1CCOCC1 [Compound D8, (E)-3-(3,4,5-trimethoxyphenyl)-1-(2-hydroxy-4,6-dimethoxy-3-(morpholinemethyl)-phenyl)-2-propylene-1-one] |  | 169 to 170 |  |
| COc1cc(OC)c(C(=O)/C=C/c2cccc(C)c2)c(O)c1CN1CCOCC1 [Compound D7, (E)-3-(3-methylphenyl)-1-(2-hydroxy-4,6-dimethoxy-3-(morpholinemethyl)-phenyl)-2-propylene-1-one] |  | 158 to 159 |  |
| CN1CC=C(c2c(O)cc(O)c3c(=O)cc(-c4ccccc4)oc23)CC1 [Compound G1, 5,7-hydroxy-8-(1-methyl-1,2,3,6-tetrahydropyridin-4-yl)-2-phenyl-4H-chromen-4-one] | 3.76 |  |  |
| CN1CC[C@H](c2c(O)cc(O)c3c(=O)cc(-c4ccccc4Cl)oc23)[C@H](O)C1 [flavopiridol, reference compound] |  |  | IC50 (HCT116 cells; [2]): ~0.13 µM |
| COc1cc(OC)c(C(=O)/C=C/c2cccc(C)c2)c(O)c1CN1CCCCC1 [Compound C5] |  | 113 to 114 |  |
| COc1cc(OC)c2c(=O)cc(-c3ccccc3)oc2c1C1=CCN(C)CC1 [Compound F1, 5,7-Dimethoxy-8-(1-methyl-1,2,3,6-tetrahydropyridin-4-yl)-2-phenyl-4H-chromen-4-one] | 21.1 |  |  |
| COc1cccc(/C=C/C(=O)c2c(OC)cc(OC)c(CN3CCCCC3)c2O)c1 [Compound C3, (E)-1-(2-hydroxy-4,6-dimethoxy-3-(piperidin-1-ylmethyl)phenyl)-3-(3-methoxyphenyl)-2-propylene-1-one] | 2.85 |  |  |
| COc1cc(OC)c(C(=O)/C=C/c2ccc(Br)cc2)c(O)c1CN1CCCCC1 [Compound C6] |  | 99 to 100 |  |
| 5,7-dimethoxy-8-(1-methyl-1,2,3,6-tetrahydropyridin-4-yl)-2-(3-methylphenyl)-4H-chromen-4-one [Compound F2] |  |  | IC50 (HCT116 cells; 48 hrs incubation, absorbance 490 nm, primary screening, read-out: IC50): 20.6 µM |

Reference: patent US20120121692A1, “COMPOUNDS AND COMPOSITIONS COMPRISING CDK INHIBITORS AND METHODS FOR TREATING CANCER” (SHANDONG UNIVERSITY, priority 2009, published 2012)
